Reference: the supplement of paper PMC11061612

Tests used:
[1] = test system: Ca-Ski (Cervical Carcinoma); experiment: combination Emax (second highest fraction inhibited in the dose matrix, 72 h); higher = more inhibition; extreme values may be limits of the assay
Procedure, shortened: (§1)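 Cell lines in DMEM/F12 or RPMI with 10% FBS were plated in 1536-well plates, held 24 hours at 37°C, 5% CO2, then given two-drug dose matrices for 72 hours (DMSO typically 0.2%). Viability was read by CellTiter-Glo 2.0 luminescence and scaled as inhibition from 0 (vehicle wells) to 1 (blank wells). Combination Emax is the second-highest inhibition in the matrix; Bliss excess is observed combination effect minus expected EA + EB − EA·EB, EA and EB being single-agent effects.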

[2] = test system: NCI-H1092 (Small Cell Lung Carcinoma); experiment: Bliss excess, mean over the matrix (fraction); higher = more synergy
Procedure, shortened: as §1

[3] = test system: KMRC-1 (Kidney Carcinoma); experiment: as above
Procedure, shortened: as §1

[4] = test system: HCC1500 (Breast Carcinoma); experiment: as above
Procedure, shortened: as §1

[5] = test system: MV-4-11 (Acute Myeloid Leukemia); experiment: as above
Procedure, shortened: as §1

[6] = test system: Mo-T (Other Blood Carcinomas); experiment: as above
Procedure, shortened: as §1

COLO-679 (Melanoma) = experiment: as above
Procedure, shortened: as §1

[7] = test system: OE33 (Esophageal Adenocarcinoma); experiment: as above
Procedure, shortened: as §1

[8] = test system: MOLT-4 (T-Lymphoblastic Leukemia); experiment: as above
Procedure, shortened: as §1

[9] = test system: SW872 (Other Solid Carcinomas); experiment: as above
Procedure, shortened: as §1

[10] = test system: KGN (Other Solid Carcinomas); experiment: as above
Procedure, shortened: as §1

[11] = test system: ML-2 (Acute Myeloid Leukemia); experiment: as above
Procedure, shortened: as §1

[12] = test system: SW982 (Other Solid Carcinomas); experiment: as above
Procedure, shortened: as §1

[13] = test system: Ca-Ski (Cervical Carcinoma); experiment: as above
Procedure, shortened: as §1

[14] = test system: HAL-01 (B-Lymphoblastic Leukemia); experiment: as above
Procedure, shortened: as §1

SK-N-AS (Neuroblastoma) = experiment: as above
Procedure, shortened: as §1

[15] = test system: HCC1937 (Breast Carcinoma); experiment: combination Emax (second highest fraction inhibited in the dose matrix, 72 h); higher = more inhibition; extreme values may be limits of the assay
Procedure, shortened: as §1

[16] = test system: HCC2998 (Colorectal Carcinoma); experiment: Bliss excess, mean over the matrix (fraction); higher = more synergy
Procedure, shortened: as §1

[17] = test system: HCC1937 (Breast Carcinoma); experiment: as above
Procedure, shortened: as §1

[18] = test system: NCI-H1838 (Lung Adenocarcinoma); experiment: as above
Procedure, shortened: as §1
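For Bliss excess, mean over the matrix in this document: after 72 h of two-drug dosing.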

Structure (SMILES)	combination Emax [1]	Bliss excess [2]	Bliss excess [3]	Bliss excess [4]	Bliss excess [5]	Bliss excess [6]	Bliss excess (COLO-679 (Melanoma))	Bliss excess [7]	Bliss excess [8]	Bliss excess [9]	Bliss excess [10]	Bliss excess [11]	Bliss excess [12]	Bliss excess [13]	Bliss excess [14]	Bliss excess (SK-N-AS (Neuroblastoma))	combination Emax [15]	Bliss excess [16]	Bliss excess [17]	Bliss excess [18]
CCc1c2c(nc3ccc(O)cc13)-c1cc3c(c(=O)n1C2)COC(=O)[C@]3(O)CC [SN-38] + O=C(c1cc(Cc2n[nH]c(=O)c3ccccc23)ccc1F)N1CCN(C(=O)C2CC2)CC1 [Olaparib] (first compound max 0.3 µM, 7x7, partner max 10 µM)	0.997	-0.0076	0.0508	0.051	0.0486	0.0236	0.005	0.0383	0.0881	0.0634	0.0691	0.0633	0.0384	0.0458	0.0568	0.096				
O=C(c1cc(Cc2n[nH]c(=O)c3ccccc23)ccc1F)N1CCN(C(=O)C2CC2)CC1 [Olaparib] + CN(CC[C@H](CSC1=CC=CC=C1)NC2=C(C=C(C=C2)S(=O)(=O)NC(=O)C3=CC=C(C=C3)N4CCC(CC4)[C@H](C5=CC=CC=C5C6=CC=C(C=C6)Cl)O)S(=O)(=O)C(F)(F)F)CCO [AZD4320] (first compound max 10 µM, 7x7, partner max 1 µM)	0.26		-0.0501		-0.0086	-0.0065	-0.0667	-0.037	0.0581	-0.0189	-0.0153	0.0877	0.0389	0.0083	0.0353	-0.0291				
CN(C)CCCOc1ccc(-c2ccc3ncc4c(c3c2)n(C2CCOCC2)c(=O)n4C)cn1 [AZD0156] + O=C(c1cc(Cc2n[nH]c(=O)c3ccccc23)ccc1F)N1CCN(C(=O)C2CC2)CC1 [Olaparib] (first compound max 3 µM, partner max 3 µM)	0.304	0.0028	-0.0316	0.0055		-0.046	-0.0013	0.0228	0.123	-0.0318	0.156	0.117	0.0903	0.063	0.191	-0.0959	0.228	0.0824	0.0316	-0.0093
C=CCn1c(=O)c2cnc(Nc3ccc(N4CCN(C)CC4)cc3)nc2n1-c1cccc(C(C)(C)O)n1 [AZD1775] + Nc1ccn([C@@H]2O[C@H](CO)[C@@H](O)C2(F)F)c(=O)n1 [Gemcitabine] (first compound max 1 µM, partner max 0.3 µM)	0.828		-0.0495		0.0238	-0.0204	-0.067	-0.0157	0.0162	0.0462	0.0009	0.0482	-0.0248	0.0644	-0.0026	-0.0254				
Cc1c2c(nn1C)CSCc1cc(n(C)n1)CSc1cc(c3ccccc3c1)OCCCc1c(C(=O)O)n(C)c3c-2c(Cl)ccc13 [AZD5991] + CC(=O)O[C@H]1C(=O)[C@@]2(C)[C@H]([C@H](OC(=O)c3ccccc3)[C@]3(O)C[C@H](OC(=O)[C@H](O)[C@@H](NC(=O)c4ccccc4)c4ccccc4)C(C)=C1C3(C)C)[C@]1(OC(C)=O)CO[C@@H]1C[C@@H]2O [Paclitaxel] (first compound max 1 µM, 7x7, partner max 3 µM)	0.919		0.0286		0.0129	-0.0521	0.0314	-0.0386	0.0219	0.018	0.0025	0.0157	-0.0039	0.0422	-0.0179	-0.0065				
CC1(C)CCC(CN2CCN(c3ccc(C(=O)NS(=O)(=O)c4ccc(NCC5CCOCC5)c([N+](=O)[O-])c4)c(Oc4cnc5[nH]ccc5c4)c3)CC2)=C(c2ccc(Cl)cc2)C1 [Venetoclax] + CS(=O)(=O)CCNCc1ccc(-c2ccc3ncnc(Nc4ccc(OCc5cccc(F)c5)c(Cl)c4)c3c2)o1 [Lapatinib] (first compound max 1 µM, 7x7, partner max 10 µM)	0.503		-0.0584		0.0293	-0.0092	-0.0634	-0.0315	0.0967	-0.0313	-0.0609	0.146	-0.0456	-0.0249	0.102	-0.0432				
C[C@@H](Nc1cc(F)cc(F)c1)c1cc(C(=O)N(C)C)cc2c(=O)cc(N3CCOCC3)oc12 [AZD8186] + C1CN(CCC1(C(=O)N[C@@H](CCO)C2=CC=C(C=C2)Cl)N)C3=NC=NC4=C3C=CN4 [AZD5363] (first compound max 10 µM, 7x7, partner max 10 µM)	0.463		-0.0524		0.0103	-0.0393	-0.12	-0.0329	-0.0083	0.0068	0.0547	-0.0217	-0.0763	-0.0032	-0.0657	-0.0294				
